Activity calls are given as the source filed them. The rule behind the calls is not given here.
Columns and labels:
Assay type in all cases: cell-based
[1] = biological target: T1, NAD(+) hydrolase SARM1 (Mus musculus) (UniProt Q6PDS3); assay: Inhibition of SARM1 in CD1 mouse DRG cells assessed as inhibition of axon degeneration by measuring reduction in NAD+ consumption rate at 5 uM added 30 mins prior to D4-Nam addition and measured 4 hrs post D4-Nam addition by LC-MS/MS analysis
T1 sequence (whole entry): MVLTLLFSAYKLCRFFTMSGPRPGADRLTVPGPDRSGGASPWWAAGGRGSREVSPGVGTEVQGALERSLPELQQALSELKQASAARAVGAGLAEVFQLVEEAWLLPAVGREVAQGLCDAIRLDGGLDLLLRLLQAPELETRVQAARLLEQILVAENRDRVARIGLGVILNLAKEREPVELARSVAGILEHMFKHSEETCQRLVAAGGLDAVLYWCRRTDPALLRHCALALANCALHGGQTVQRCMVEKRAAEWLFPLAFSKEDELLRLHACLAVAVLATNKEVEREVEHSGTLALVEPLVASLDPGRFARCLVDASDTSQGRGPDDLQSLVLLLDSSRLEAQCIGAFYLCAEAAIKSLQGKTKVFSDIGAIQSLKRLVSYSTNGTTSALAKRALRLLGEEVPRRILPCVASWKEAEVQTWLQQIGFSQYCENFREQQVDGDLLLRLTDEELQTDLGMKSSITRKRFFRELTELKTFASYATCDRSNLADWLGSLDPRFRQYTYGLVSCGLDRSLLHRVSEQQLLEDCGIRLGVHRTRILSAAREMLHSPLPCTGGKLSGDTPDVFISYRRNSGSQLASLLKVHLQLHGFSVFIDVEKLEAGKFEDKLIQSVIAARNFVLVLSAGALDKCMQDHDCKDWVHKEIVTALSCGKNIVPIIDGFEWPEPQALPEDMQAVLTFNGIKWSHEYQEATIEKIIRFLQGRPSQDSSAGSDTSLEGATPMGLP

[2] = biological target: T2, NAD(+) hydrolase SARM1 (Homo sapiens) (UniProt Q6SZW1); assay: Substrate activity at StrepTag-tagged human SARM1 TIR (561 to 724 residues) expressed in HEK293T cells assessed as increase in NADase activity in presence of NAD+ incubated for 60 mins by HPLC analysis
T2 sequence (whole entry): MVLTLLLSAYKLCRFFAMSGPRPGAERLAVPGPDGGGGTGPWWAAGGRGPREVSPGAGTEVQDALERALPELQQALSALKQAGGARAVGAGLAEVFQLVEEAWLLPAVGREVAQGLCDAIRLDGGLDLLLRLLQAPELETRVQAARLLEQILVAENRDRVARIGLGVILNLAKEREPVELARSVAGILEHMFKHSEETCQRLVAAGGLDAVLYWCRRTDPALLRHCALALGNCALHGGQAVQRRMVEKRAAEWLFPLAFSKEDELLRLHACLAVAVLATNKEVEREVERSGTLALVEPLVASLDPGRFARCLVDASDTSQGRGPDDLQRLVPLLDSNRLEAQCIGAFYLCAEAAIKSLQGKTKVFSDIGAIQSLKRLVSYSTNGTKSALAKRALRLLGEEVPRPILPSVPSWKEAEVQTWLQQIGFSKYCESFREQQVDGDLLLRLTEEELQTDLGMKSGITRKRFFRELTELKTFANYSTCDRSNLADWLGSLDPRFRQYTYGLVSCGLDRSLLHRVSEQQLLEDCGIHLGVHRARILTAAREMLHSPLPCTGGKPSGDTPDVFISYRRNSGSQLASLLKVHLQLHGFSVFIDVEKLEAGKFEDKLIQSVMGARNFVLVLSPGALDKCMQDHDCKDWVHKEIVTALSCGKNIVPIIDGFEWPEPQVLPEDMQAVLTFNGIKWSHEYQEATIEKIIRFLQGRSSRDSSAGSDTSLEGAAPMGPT

[3] = biological target: T2, NAD(+) hydrolase SARM1 (Homo sapiens); assay: Inhibition of StrepTag-tagged human SARM1 TIR (561 to 724 residues) expressed in HEK293T cells assessed as reduction in NADase activity at 1 mM in presence of NAD+ incubated for 60 mins by HPLC analysis
[4] = biological target: T2, NAD(+) hydrolase SARM1 (Homo sapiens); assay: Inhibition of StrepTag-tagged human SARM1 TIR (561 to 724 residues) expressed in HEK293T cells assessed as reduction in NADase activity at 5 uM in presence of NAD+ incubated for 60 mins by HPLC analysis
[5] = biological target: T2, NAD(+) hydrolase SARM1 (Homo sapiens); assay: Inhibition of StrepTag-tagged human SARM1 TIR (561 to 724 residues) expressed in NRK1-HEK293T cells assessed as reduction in NADase activity by measuring NAD consumption at 150 uM pre-incubated up to 120 mins before NAD+ addition and further incubated for 60 mins by HPLC analysis relative to control; design: scale not given: the % may be the effect or the level left
[6] = biological target: T2, NAD(+) hydrolase SARM1 (Homo sapiens); assay: Inhibition of StrepTag-tagged human SARM1 TIR (561 to 724 residues) expressed in NRK1-HEK293T cells assessed as reduction in NADase activity by measuring ADPR production at 150 uM pre-incubated up to 120 mins before NAD+ addition and further incubated for 60 mins by HPLC analysis; design: scale not given: the % may be the effect or the level left
[7] = biological target: T2, NAD(+) hydrolase SARM1 (Homo sapiens); assay: Inhibition of StrepTag-tagged human SARM1 TIR (561 to 724 residues) expressed in HEK293T cells assessed as reduction in NADase activity at 5 uM in presence of NAD+ incubated for 60 mins by LC-MS/MS analysis
[8] = biological target: T2, NAD(+) hydrolase SARM1 (Homo sapiens); assay: Inhibition of StrepTag-tagged human SARM1 TIR (561 to 724 residues) expressed in HEK293T cells in presence of NAD+ incubated for 60 mins by chemiluminescence based NAD+ Glo assay
[9] = biological target: T2, NAD(+) hydrolase SARM1 (Homo sapiens); assay: Substrate activity at StrepTag-tagged human SARM1 TIR (561 to 724 residues) expressed in HEK293T cells assessed as increase in NADase activity at 100 uM in presence of NAD+ incubated for 60 mins by HPLC analysis
[10] = biological target: T1, NAD(+) hydrolase SARM1 (Mus musculus); assay: Inhibition of SARM1 in CD1 mouse DRG cells assessed as inhibition of axon degeneration measured during 6 to 24 hrs by SEM micrography
[11] = biological target: T1, NAD(+) hydrolase SARM1 (Mus musculus); assay: Inhibition of SARM1 in CD1 mouse DRG cells assessed as inhibition of axon degeneration by measuring reduction in NAD+ consumption rate added 30 mins prior to D4-Nam addition and measured 4 hrs post D4-Nam addition by LC-MS/MS analysis
[12] = biological target: T1, NAD(+) hydrolase SARM1 (Mus musculus); assay: Inhibition of SARM1 in CD1 mouse DRG cells assessed as inhibition of axon degeneration measured during 6 to 24 hrs by drop culture assay

SMILES: O=[N+]([O-])c1ccc(Sc2cccc[n+]2[O-])c2nonc12
- inhibition [1]: Active

SMILES: O=Cc1cccnc1
- Activity [2]: inactive

SMILES: CCOc1ccc(NC(=O)C2CCCN(C)C2)cc1 (stereo unspecified)
- inhibition [1]: Active

SMILES: CCOC(=O)/C(C#N)=C1\SS/C(=C(/C#N)C(=O)OCC)S1
- inhibition [1]: Active

SMILES: O=C1N=C(c2ccccc2)C(c2ccccc2)N1 (stereo unspecified)
- inhibition [1]: Active

SMILES: NC(=O)C1=CN([C@@H]2O[C@H](COP(=O)(O)OP(=O)(O)OC[C@H]3O[C@@H](n4cnc5c4ncn4ccnc54)[C@H](O)[C@@H]3O)[C@@H](O)[C@H]2O)CC=C1
- inhibition [3]: Active
- Activity [2]: inactive

SMILES: COc1ccc2[nH]c([S+]([O-])Cc3ncc(C)c(OC)c3C)nc2c1 (stereo unspecified)
- inhibition [4]: Active

SMILES: NC(=O)c1ccc(N)nc1
- Activity [2]: inactive

SMILES: O=C(c1ccccc1)C1C(c2ccccc2)C1[N+](=O)[O-] (stereo unspecified)
- inhibition [1]: Active

SMILES: Cc1cnc(C[S@@+]([O-])c2nc3ccccc3[nH]2)c(C)c1OCC(F)(F)F
- Activity [5]: > 75%
- Activity [6]: < 50%

SMILES: NC(=O)C1=CN([C@@H]2O[C@H](COP(=O)(O)OP(=O)(O)OC[C@H]3O[C@@H](n4cnc5c(=O)[nH]cnc54)[C@H](O)[C@@H]3O)[C@@H](O)[C@H]2O)CC=C1
- Activity [2]: Active

SMILES: Cc1cc(O)c(-c2cc(O)c(C)cc2O)cc1O
- inhibition [1]: Active

SMILES: CN(C)c1n/c(=N/c2cccc(Cl)c2)ss1
- inhibition [7]: Active
- inhibition [8]: Active
- inhibition [1]: Active

SMILES: Cc1cccc2c1c1ccc3c(c1n2C)C(=O)C=CC3=O
- inhibition [1]: Active

SMILES: CC1(C)CC[C@]2(C(=O)n3ccnc3)CC[C@]3(C)[C@H](C(=O)C=C4[C@@]5(C)C=C(C#N)C(=O)C(C)(C)[C@@H]5CC[C@]43C)[C@@H]2C1
- inhibition [1]: Active

SMILES: COc1ccc2[nH]c([S+]([O-])Cc3ncc(C)c(OC)c3C)nc2n1 (stereo unspecified)
- Activity [5]: 50 to 75%
- inhibition [4]: Active
- Activity [6]: < 50%

SMILES: NC(=O)C1=CN([C@@H]2O[C@H](COP(=O)(O)OP(=O)(O)OC[C@H]3O[C@@H](n4cnc5c(N)ncnc54)[C@H](OP(=O)(O)O)[C@@H]3O)[C@@H](O)[C@H]2O)C=CC1
- Activity [2]: Active
- Activity [9]: Active

SMILES: CC1=C(O)C(=O)C=C2C1=CC=C1[C@@]2(C)CC[C@@]2(C)[C@@H]3C[C@](C)(C(=O)O)CC[C@]3(C)CC[C@]12C
- inhibition [1]: Active

SMILES: CCN(CC)c1ccc(C=C2C(=O)NC(=S)NC2=O)cc1
- inhibition [1]: Active

SMILES: Cc1ccc([S+]([O-])c2ccc([N+](=O)[O-])c3nonc23)cc1 (stereo unspecified)
- inhibition [1]: Active

SMILES: COC(=O)CC1(C(=O)OC)Nc2cc(Cl)c(Cl)cc2S(=O)(=O)N1O (stereo unspecified)
- inhibition [1]: Active

SMILES: NC(=O)C1CCCc2c1[nH]c1ccc(Cl)cc21 (stereo unspecified)
- inhibition [3]: Active
- Activity [2]: inactive

SMILES: COc1ccnc(C[S+]([O-])c2nc3cc(OC(F)F)ccc3[nH]2)c1OC (stereo unspecified)
- inhibition [4]: Active

SMILES: COCCCOc1ccnc(C[S+]([O-])c2nc3ccccc3[nH]2)c1C (stereo unspecified)
- inhibition [4]: Active

SMILES: COc1cnc2[nH]c([S+]([O-])Cc3ncc(C)c(OC)c3C)nc2c1 (stereo unspecified)
- Activity [5]: > 75%
- Activity [6]: 50 to 75%

SMILES: Cn1c2ccccc2c2ccc3c(c21)C(=O)C=CC3=O
- inhibition [1]: Active

SMILES: O=C1NC(=O)C(=Cc2csc3ccccc23)C(=O)N1
- inhibition [1]: Active

SMILES: CC(=O)c1cccnc1
- Activity [2]: inactive

SMILES: O=C1NC(=O)C(=Cc2ccc3ccccc3c2)C(=O)N1
- inhibition [1]: Active

SMILES: COc1ccc2c(c1)nc([S+]([O-])Cc1ncc(C)c(OC)c1C)n2C (stereo unspecified)
- Activity [5]: > 75%
- Activity [6]: > 75%

SMILES: Cc1c(OCC(F)(F)F)ccnc1CSc1nc2ccccc2[nH]1
- Activity [5]: > 75%
- Activity [6]: > 75%

SMILES: NC(=O)c1ccccc1
- Activity [2]: inactive

SMILES: Oc1cc(CNC2CCCCC2)c(O)cc1CNC1CCCCC1
- inhibition [1]: Active

SMILES: COc1ccc2c(c1)c1ccc3c(c1n2C)C(=O)C=CC3=O
- inhibition [1]: Active

SMILES: CN(C)c1n/c(=N/Cc2ccco2)ss1
- inhibition [7]: Active
- inhibition [10]: Active
- inhibition [11]: Dose-dependent effect
- inhibition [12]: Active
- inhibition [1]: Active

SMILES: Cc1ccc2c(c1)c1ccc3c(c1n2C)C(=O)C=CC3=O
- inhibition [1]: Active

SMILES: Cc1c(OCC(F)(F)F)ccnc1C[S+]([O-])c1nc2ccccc2[nH]1 (stereo unspecified)
- inhibition [4]: Active

SMILES: NC(=S)c1cccnc1
- Activity [2]: inactive

SMILES: Cc1c(OCC(F)(F)F)ccnc1CS(=O)(=O)c1nc2ccccc2[nH]1
- Activity [5]: > 75%
- Activity [6]: > 75%

SMILES: Cc1c(OCC(F)(F)F)ccnc1C[S@@+]([O-])c1nc2ccccc2[nH]1
- inhibition [4]: Active

Source: ChEMBL document CHEMBL4421736, “INHIBITORS OF SARM1 NADase ACTIVITY AND USES THEREOF” (2018)
